In article PMC2918699 (European journal of medicinal chemistry, 2010):

Legend:
[1] = GC-MS analysis of stilbenes in mice serum; type: in vivo, SCID mice; details: GC-MS retention time and mass spectrum compared to standards
HT-29 xenograft = HT-29 xenograft tumor growth in SCID mice; type: in vivo; details: 10 mg/kg i.p. once daily, after 3 weeks
PCNA = PCNA in HT-29 tumors by western blotting and immunohistochemistry; type: in vivo, SCID mice; details: western blotting and immunohistochemistry of HT-29 tumors
p27 = p27 in HT-29 tumors by western blotting and immunohistochemistry; type: in vivo, SCID mice; details: western blotting and immunohistochemistry of HT-29 tumors
yeast = yeast assays, mimics calorie restriction by stimulating Sir2; cited from earlier work

Which “Configuration (cis/trans) found in the serum” value [1] does the source give for COC(=O)c1ccc(/C=C/c2cc(OC)cc(OC)c2)cc1 [Compound 5, (E)-Methyl-4-(3,5-dimethoxystyryl)benzoate] here?
The value was “retained their configurations”.

Which results are given for COc1ccc(/C=C/c2cc(OC)cc(OC)c2)cc1 [Compound 9, (E)-1,3-dimethoxy-5-(4-methoxystyryl)benzene]?
Tumor volume lower compared to the control (HT-29 xenograft): 45%; Tumor weight decrease compared to the control (HT-29 xenograft): 21%; Configuration (cis/trans) found in the serum [1]: retained their configurations; PCNA levels in tumors (PCNA): lowered; p27 levels in tumors (p27): increased

For Oc1ccc(/C=C/c2cc(O)cc(O)c2)cc1 [Compound 17, Resveratrol], which extended lifespan (yeast) is on record?
The extended lifespan was 70%.

With COc1cc(/C=C\c2ccc(N)cc2)cc(OC)c1 [Compound 4, (Z)-4-(3,5-dimethoxystyryl)aniline] as the compound, how does the “Configuration (cis/trans) found in the serum” value [1] read?
Its value is “isomerized to 3”.

With COC(=O)c1ccc(/C=C\c2cc(OC)cc(OC)c2)cc1 [Compound 6, (Z)- Methyl 4-(3,5-dimethoxystyryl)benzoate] as the compound, how does the “Configuration (cis/trans) found in the serum” value [1] read?
The value was “retained their configurations”.

For COc1ccc(/C=C\c2cc(OC)cc(OC)c2)cc1 [Compound 10, (Z)-1,3-dimethoxy-5-(4-methoxystyryl)benzene], which “Tumor weight decrease compared to the control” value (HT-29 xenograft) is on record?
The value was 15%.

What about the “Configuration (cis/trans) found in the serum” value [1] of the same compound?
The value was “retained their configurations”.
